Assay results from ChEMBL document CHEMBL1201862, “PubChem BioAssay data set” (2004).
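Where inhibition never reached the appropriate level, the endpoint shown equals the highest concentration tested. Otherwise, values were interpolated linearly from a five-concentration, 48-hour dose response in 96-well plates. At the GI50, growth is halved.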 Calls of active or inactive are those of the source. Cut-off read from the data, not from the text of the source: active = GI50 up to about 1.1 µM and inactive = higher.

Assays:
Test in all cases: DTP human tumour cell line panel, 48 h
NCI/ADR-RES = test system: NCI/ADR-RES
HT-29 = test system: HT-29
PC-3 = test system: PC-3
OVCAR-5 = test system: OVCAR-5
HOP-92 = test system: HOP-92
HCT-116 = test system: HCT-116
MOLT-4 = test system: MOLT-4
RXF 393 = test system: RXF 393
SK-OV-3 = test system: SK-OV-3
MDA-MB-231 = test system: MDA-MB-231
Hs-578T = test system: Hs-578T
HOP-62 = test system: HOP-62
HCT-15 = test system: HCT-15
KM12 = test system: KM12
SR = test system: SR
NCI-H460 = test system: NCI-H460
SF-539 = test system: SF-539
CAKI-1 = test system: CAKI-1
MCF7 = test system: MCF7
NCI-H522 = test system: NCI-H522

Measured: GI50

CC(C)(C)OC(=O)N1C(=O)C2CCCC21 (centres undefined)
inactive: NCI/ADR-RES > 100 µM | HT-29 > 100 µM | PC-3 > 100 µM | OVCAR-5 > 100 µM | HOP-92 > 100 µM | HCT-116 > 100 µM | MOLT-4 > 100 µM | RXF 393 > 100 µM | SK-OV-3 > 100 µM | MDA-MB-231 > 100 µM | Hs-578T > 100 µM | HOP-62 > 100 µM | KM12 > 100 µM | SR > 100 µM | NCI-H460 > 100 µM
> 100 µM: HCT-15

CNNC1=NS(=O)(=O)c2cc(C(=O)OC)c(Cl)cc2S1
inactive: NCI/ADR-RES > 10 µM | HT-29 > 10 µM | PC-3 > 10 µM | OVCAR-5 > 10 µM | SF-539 > 10 µM | HCT-116 > 10 µM | CAKI-1 > 10 µM | MOLT-4 > 10 µM | MCF7 > 10 µM | RXF 393 > 10 µM | SK-OV-3 > 10 µM | MDA-MB-231 > 10 µM | NCI-H522 > 10 µM | Hs-578T > 10 µM | HOP-62 > 10 µM | KM12 > 10 µM | NCI-H460 > 10 µM
> 10 µM: HCT-15

COc1cc(C2(O)c3ccccc3C3=NCCN32)cc(OC)c1OC (centres undefined)
inactive: NCI/ADR-RES > 100 µM | HT-29 > 100 µM | PC-3 > 100 µM | HOP-92 > 100 µM | HCT-116 > 100 µM | CAKI-1 > 100 µM | MOLT-4 30.3 µM | SK-OV-3 > 100 µM | MDA-MB-231 > 100 µM | Hs-578T > 100 µM | HOP-62 > 100 µM | KM12 > 100 µM | SR 64.3 µM | NCI-H460 > 100 µM
> 100 µM: HCT-15

O=C(OCC(OC(=O)c1ccccc1)C(OC(=O)c1ccccc1)C(OC(=O)c1ccccc1)c1cnn(-c2ccccc2)n1)c1ccccc1 (centres undefined)
inactive: NCI/ADR-RES > 100 µM | HT-29 > 100 µM | OVCAR-5 > 100 µM | HOP-92 > 100 µM | SF-539 > 100 µM | HCT-116 > 100 µM | CAKI-1 > 100 µM | MOLT-4 > 100 µM | MCF7 > 100 µM | RXF 393 > 100 µM | SK-OV-3 > 100 µM | NCI-H522 > 100 µM | Hs-578T > 100 µM | HOP-62 > 100 µM | KM12 > 100 µM | SR > 100 µM | NCI-H460 > 100 µM
> 100 µM: HCT-15

CC(C)CC1C(=O)OC(C)(C)OC1=O
> 100 µM: HCT-15
inactive: NCI/ADR-RES > 100 µM | HT-29 > 100 µM | PC-3 > 100 µM | OVCAR-5 > 100 µM | SF-539 > 100 µM | HCT-116 > 100 µM | CAKI-1 > 100 µM | MOLT-4 > 100 µM | MCF7 > 100 µM | RXF 393 > 100 µM | SK-OV-3 > 100 µM | MDA-MB-231 > 100 µM | NCI-H522 > 100 µM | Hs-578T > 100 µM | HOP-62 > 100 µM | KM12 > 100 µM | NCI-H460 > 100 µM

CCCCc1ccc(Nc2cc(=O)n(C)c(=O)[nH]2)cc1
inactive: NCI/ADR-RES 57.4 µM | HT-29 > 100 µM | PC-3 91.2 µM | OVCAR-5 > 100 µM | HOP-92 26.7 µM | SF-539 84.3 µM | HCT-116 72.6 µM | CAKI-1 > 100 µM | MCF7 22.9 µM | RXF 393 > 100 µM | SK-OV-3 > 100 µM | MDA-MB-231 89.7 µM | NCI-H522 > 100 µM | Hs-578T > 100 µM | HOP-62 > 100 µM | KM12 49.4 µM | NCI-H460 32.2 µM
93.1 µM: HCT-15

N#CC1=C2SCCN2C(=O)C(C#N)C12CCCCC2 (centres undefined)
inactive: NCI/ADR-RES > 100 µM | HT-29 > 100 µM | PC-3 > 100 µM | OVCAR-5 > 100 µM | HOP-92 > 100 µM | SF-539 > 100 µM | HCT-116 > 100 µM | CAKI-1 > 100 µM | MOLT-4 > 100 µM | MCF7 > 100 µM | RXF 393 59.4 µM | SK-OV-3 > 100 µM | MDA-MB-231 > 100 µM | NCI-H522 > 100 µM | HOP-62 > 100 µM | KM12 > 100 µM | SR > 100 µM | NCI-H460 > 100 µM
> 100 µM: HCT-15

CCCCNC(=O)Cn1c2ccc(Br)cc2c2nc3ccccc3nc21
active: SR 0.589 µM
inactive: NCI/ADR-RES 42.2 µM | HT-29 > 100 µM | PC-3 > 100 µM | OVCAR-5 > 100 µM | HOP-92 > 100 µM | HCT-116 64.3 µM | CAKI-1 57.3 µM | MOLT-4 > 100 µM | RXF 393 > 100 µM | MDA-MB-231 > 100 µM | Hs-578T > 100 µM | HOP-62 58.1 µM | KM12 > 100 µM

Cc1cc(-n2nnc(C(=O)O)c2-c2ccccc2)c2ccc(Cl)cc2n1
> 100 µM: HCT-15
inactive: NCI/ADR-RES > 100 µM | HT-29 > 100 µM | PC-3 > 100 µM | OVCAR-5 > 100 µM | HOP-92 > 100 µM | SF-539 > 100 µM | HCT-116 > 100 µM | CAKI-1 > 100 µM | MOLT-4 17.5 µM | MCF7 > 100 µM | RXF 393 > 100 µM | SK-OV-3 > 100 µM | MDA-MB-231 > 100 µM | NCI-H522 > 100 µM | Hs-578T > 100 µM | KM12 > 100 µM | NCI-H460 > 100 µM

CC(C)(Oc1ccc(C2C[C@H]2Cl)cc1)C(=O)O (some centres undefined)
> 100 µM: HCT-15
inactive: PC-3 > 100 µM | OVCAR-5 > 100 µM | HOP-92 > 100 µM | SF-539 > 100 µM | HCT-116 > 100 µM | CAKI-1 > 100 µM | MOLT-4 > 100 µM | MCF7 > 100 µM | RXF 393 > 100 µM | SK-OV-3 > 100 µM | MDA-MB-231 > 100 µM | NCI-H522 > 100 µM | Hs-578T > 100 µM | HOP-62 > 100 µM | KM12 > 100 µM | SR > 100 µM | NCI-H460 > 100 µM

NCCC(=O)NC(Cc1c[nH]cn1)C(=O)O (centres undefined)
> 100 µM: HCT-15
inactive: NCI/ADR-RES > 100 µM | HT-29 > 100 µM | PC-3 > 100 µM | OVCAR-5 > 100 µM | HOP-92 > 100 µM | SF-539 > 100 µM | HCT-116 > 100 µM | CAKI-1 > 100 µM | MOLT-4 > 100 µM | MCF7 > 100 µM | MDA-MB-231 > 100 µM | NCI-H522 > 100 µM | Hs-578T > 100 µM | HOP-62 > 100 µM | KM12 > 100 µM | NCI-H460 > 100 µM

Cc1ccc(S(=O)ON2CCC(C(=O)O)(c3ccccc3)CC2)cc1 (centres undefined)
> 100 µM: HCT-15
inactive: NCI/ADR-RES > 100 µM | HT-29 > 100 µM | PC-3 > 100 µM | OVCAR-5 > 100 µM | HOP-92 45.5 µM | HCT-116 > 100 µM | CAKI-1 > 100 µM | MOLT-4 > 100 µM | MCF7 > 100 µM | RXF 393 > 100 µM | SK-OV-3 > 100 µM | MDA-MB-231 > 100 µM | NCI-H522 > 100 µM | Hs-578T > 100 µM | HOP-62 > 100 µM | KM12 > 100 µM | NCI-H460 > 100 µM

COC(=O)C(/C(=N\O)C(=O)Nc1cccc(Cl)c1C)c1cnc2ccccc2n1 (centres undefined)
inactive: NCI/ADR-RES > 100 µM | HT-29 > 100 µM | PC-3 > 100 µM | OVCAR-5 > 100 µM | HOP-92 > 100 µM | SF-539 > 100 µM | HCT-116 > 100 µM | CAKI-1 > 100 µM | MOLT-4 > 100 µM | MCF7 > 100 µM | RXF 393 92.9 µM | SK-OV-3 > 100 µM | MDA-MB-231 > 100 µM | NCI-H522 > 100 µM | HOP-62 > 100 µM | KM12 > 100 µM | SR > 100 µM | NCI-H460 > 100 µM
> 100 µM: HCT-15

CC(=O)/C=C1\Nc2ccccc2N\C1=C/C(C)=O
inactive: NCI/ADR-RES 29 µM | HT-29 20.1 µM | PC-3 37.9 µM | OVCAR-5 28.8 µM | HOP-92 24.4 µM | SF-539 30.3 µM | HCT-116 16.9 µM | CAKI-1 60.8 µM | MOLT-4 14.5 µM | RXF 393 19.1 µM | SK-OV-3 30.6 µM | MDA-MB-231 22 µM | NCI-H522 11.1 µM | Hs-578T 29.9 µM | HOP-62 27.3 µM | KM12 24 µM | SR 25.1 µM | NCI-H460 16.5 µM
24.3 µM: HCT-15

Cc1ccsc1/C=N/NC1=NCCN1
> 100 µM: HCT-15
inactive: NCI/ADR-RES > 100 µM | HT-29 > 100 µM | PC-3 > 100 µM | OVCAR-5 > 100 µM | HOP-92 > 100 µM | HCT-116 > 100 µM | CAKI-1 > 100 µM | MOLT-4 > 100 µM | MCF7 > 100 µM | RXF 393 > 100 µM | SK-OV-3 > 100 µM | MDA-MB-231 > 100 µM | Hs-578T > 100 µM | HOP-62 > 100 µM | KM12 > 100 µM

CCOC(=O)Cc1nc2cc(F)c(F)cc2[nH]c1=O
> 100 µM: HCT-15
inactive: NCI/ADR-RES > 100 µM | HT-29 > 100 µM | PC-3 > 100 µM | OVCAR-5 > 100 µM | HOP-92 > 100 µM | SF-539 > 100 µM | HCT-116 > 100 µM | CAKI-1 > 100 µM | MOLT-4 > 100 µM | MCF7 > 100 µM | RXF 393 > 100 µM | SK-OV-3 > 100 µM | MDA-MB-231 > 100 µM | Hs-578T > 100 µM | HOP-62 > 100 µM | KM12 > 100 µM | NCI-H460 > 100 µM
